These results are taken from patent US9226942B2, “Expanding hematopoietic stem cells” (priority 2010, dated 2016).

Series [1] relates to human CD34+ cells. Kind of series: SR1-mediated expansion of human CD34+ cells. The format is cell-based.
Series [2] relates to VentX. Kind of series: Quantitative (RT-)PCR of VentX expression in CD34+ cells. The format is cell-based, human. The source says:
Bone marrow (BW) samples were obtained from discarded femoral head tissue after hip replacement surgery from Brigham and Women's Hospital, with institutional IRB approval. After Ficoll separation of mononuclear cells, CD34+ cells were enriched using magnetically activated cell sorting CD34^+ progenitor kit (Miltenyi Biotec). The purity of the BW CD34+ cells was over 95%, as assessed by flow cytometry as described in Rizo et al., 2008.
Total RNA was isolated by the TRIzol method, and same amount of RNA was used for first-strand cDNA synthesis with SuperSript First-Strand Synthesis System (Invitrogen) according to the manufacturer's protocol. To determine VentX mRNA level, the cDNA was then used for real-time PCR of VentX with primers: 5′-CCGTCAGCATCAAGGAGG-3′ (SEQ ID NO: 19) and 5′-CTGGACCTCTGAGAGCTGC-3′ (SEQ ID NO: 20). Real-time PCR was also performed with SYBR Green on a LightCycler® 480 system (480 Real-Time PCR System; Roche).
Briefly, the lentiviral vector pHAGE-CMV-eGFPW that expresses a shRNA targeting VentX (pHAGE-shVentX) was used for the transduction of bone marrow CD34+ cells. This lentiviral vector contains an internal ribosome entry site (IRES) that allows simultaneous expression of GFP to monitor transduction rate or for cell sorting. The corresponding DNA sequence of VentX shRNA is SEQ ID NO: 12 or 14. […]

Series [3] has as its system BW CD34+ cells. As to the kind of experiment: Cytokine supplemented stroma-free liquid culture of CD34+ cells (cell counts, FACS). The format is cell-based, human.
Series [4] concerns CD34+ cells. Kind of series: In vitro colony-forming cell (CFC) assay. The format is cell-based, human. How it is done:
Assays for in vitro colony-forming cells (CFCs) were performed by plating sorted GFP positive CD34+ cells (1×10^4 per dish) in triplicates in complete methylcellulose medium (Methocult G F, H4434; Stem Cell Technologies), which contains a mixture of recombinant human cytokines (SCF, IL-3, GM-CSF, and erythropoietin). Colonies were counted after 14 days of incubation at 37° C. and classified according to standard criteria.
Human BW CD34+ cells were obtained as described in Example 1. These cells were transfected with pCS2-GFP or pCS2-GFPVentX plasmid using the Human CD34+ cell Nucleofector Kit (Lonza) as described above. GFP-positive cells were sorted by FACSAria high-speed sorter after transfected for 24 hours.

Setting [5] is: colonies counted after 14 days, vs GFP control.

On to `CC(C)n1cnc2c(NCCc3ccc(O)cc3)nc(-c3csc4ccccc34)nc21` [SR1, StemRegenin 1, reference compound], for which the “expansion of CD34+ cells” value in series [1] is reported as “increased”. Further, the “expression of VentX in the CD34+ cells” value in series [2] is on record as “inhibited”.
As for “siVentX: short oligonucleotides targeting VentX, siRNA SEQ ID NO: 5 (UUCAGAAUCGCCGCAUGAAACACAAACGG) (listed as RNA, chemistry not given here)”, in series [3] (2 weeks culture), the “expansion of HSCs in comparison with siGFP-transfected cells” value is recorded as ~2 fold. The “percentage of CD34+ cells” value in series [3] (siRNA-transfected cells) is given as “an increase”. Further, the “increase in total number of progeny cells” value in series [4] (based on the CFC assay) is reported as ~2 fold. Also, in series [4] (setting [5]), the “increase in formation of BFU-E/CFU-E colonies” value is ~2 fold and the “increase in formation of CFU-GM colonies” value is ~2 fold. Further, the “knockdown of VentX in CD34+ cells” value in series [2] (quantitative PCR / RT-PCR) is recorded as ~70%.
